# Source: ChEMBL document CHEMBL3045848, “Microwave-assisted solvent-free synthesis of biologically active novel heterocycles from 3-formylchromones” (2011)
# Calls of active or inactive are those of the source. No cut-off for these calls is given here.
# Legend:
# Bacillus subtilis [1] = test: Antibacterial activity against Bacillus subtilis MTCC 121 at 100 ug/ml after 24 hr by filter paper disk method; assay type: functional; conditions: for zone of inhibition at 100 µg/mL: MTCC 121, 24 h, read-out: DIZ
# Escherichia coli [2] = test: Antibacterial activity against Escherichia coli K-12 at 100 ug/ml after 24 hr by filter paper disk method; assay type: functional; conditions: for zone of inhibition at 100 µg/mL: K-12, 24 h, read-out: DIZ
# Candida albicans = test: Antifungal activity against Candida albicans IOA-109 at 100 ug/ml after 18 to 48 hr; assay type: functional; conditions: for zone of inhibition at 100 µg/mL: read-out: DIZ
# Salmonella typhimurium [3] = test: Antibacterial activity against Salmonella enterica subsp. enterica serovar Typhimurium MTCC 98 at 100 ug/ml after 24 hr by filter paper disk method; assay type: functional; conditions: for zone of inhibition at 100 µg/mL: MTCC 98, 24 h, read-out: DIZ
# Aspergillus fumigatus [4] = test: Antifungal activity against Aspergillus fumigatus at 100 ug/ml after 72 hr; assay type: functional; conditions: for zone of inhibition at 100 µg/mL: read-out: DIZ
# Staphylococcus aureus [5] = test: Antibacterial activity against Staphylococcus aureus SA 22 at 100 ug/ml after 24 hr by filter paper disk method; assay type: functional; conditions: for zone of inhibition at 100 µg/mL: SA 22, 24 h, read-out: DIZ
# Aspergillus niger [6] = test: Antifungal activity against Aspergillus niger at 100 ug/ml after 72 hr; assay type: functional; conditions: for zone of inhibition at 100 µg/mL: read-out: DIZ
# Escherichia coli [7] = test: Antibacterial activity against Escherichia coli K-12 at 30 ug/disc after 24 hr by filter paper disk method; assay type: functional; conditions: K-12, 24 h, read-out: DIZ
# Staphylococcus aureus [8] = test: Antibacterial activity against Staphylococcus aureus SA 22 at 30 ug/disc after 24 hr by filter paper disk method; assay type: functional; conditions: SA 22, 24 h, read-out: DIZ
# Salmonella typhimurium [9] = test: Antibacterial activity against Salmonella enterica subsp. enterica serovar Typhimurium MTCC 98 at 30 ug/disc after 24 hr by filter paper disk method; assay type: functional; conditions: MTCC 98, 24 h, read-out: DIZ
# Bacillus subtilis [10] = test: Antibacterial activity against Bacillus subtilis MTCC 121 at 30 ug/disk after 24 hr by filter paper disk method; assay type: functional; conditions: MTCC 121, 24 h, read-out: DIZ
# Aspergillus fumigatus [11] = test: Antifungal activity against Aspergillus fumigatus at 30 ug/disk after 72 hr; assay type: functional, organism-based
# Aspergillus niger [12] = test: Antifungal activity against Aspergillus niger at 30 ug/disk after 72 hr; assay type: functional, organism-based
Compound,zone of inhibition at 100 µg/mL (Bacillus subtilis [1]) [mm],zone of inhibition at 100 µg/mL (Escherichia coli [2]) [mm],zone of inhibition at 100 µg/mL (Candida albicans) [mm],zone of inhibition at 100 µg/mL (Salmonella typhimurium [3]) [mm],diameter of the inhibition zone (DIZ) (Aspergillus fumigatus [4]),zone of inhibition at 100 µg/mL (Staphylococcus aureus [5]) [mm],zone of inhibition at 100 µg/mL (Aspergillus niger [6]) [mm],diameter of the inhibition zone (DIZ) (Aspergillus niger [6]),diameter of the inhibition zone (DIZ) (Bacillus subtilis [1]),zone of inhibition at 100 µg/mL (Aspergillus fumigatus [4]) [mm],further results
CN1C(=O)C(C2=NN(c3nc4ccccc4s3)C(c3coc4ccccc4c3=O)C2)C(=O)N(C)C1=O (stereo not given),10,18,14,9,inactive,13,14,–,–,–,–
CN1C(=O)C(c2cc(-c3coc4ccccc4c3=O)[nH]n2)C(=O)N(C)C1=O,12,12,–,12,inactive,14,–,inactive,–,–,diameter of the inhibition zone (DIZ) (Candida albicans): inactive
CN1C(=O)C(C2=NN(c3ccccc3)C(c3coc4ccccc4c3=O)C2)C(=O)N(C)C1=O (stereo not given),–,8,15,12,–,–,–,inactive,inactive,12,diameter of the inhibition zone (DIZ) (Staphylococcus aureus [5]): inactive
O=C(N[C@H](CO)[C@H](O)c1ccc([N+](=O)[O-])cc1)C(Cl)Cl [CHLORAMPHENICOL],–,–,–,–,inactive,–,–,inactive,–,–,zone of inhibition at 30 µg/disc (Escherichia coli [7]): 25 mm; zone of inhibition at 30 µg/disc (Staphylococcus aureus [8]): 26 mm; diameter of the inhibition zone (DIZ) (Candida albicans): inactive; zone of inhibition at 30 µg/disc (Salmonella typhimurium [9]): 20 mm; zone of inhibition at 30 µg/disc (Bacillus subtilis [10]): 24 mm
CN1C(=O)C(C2=NNC(c3coc4ccccc4c3=O)C2)C(=O)N(C)C1=O (stereo not given),13,15,14,12,–,16,8,–,–,14,–
Cc1ccc2occ(C(Br)C(Br)C(=O)C3C(=O)N(C)C(=O)N(C)C3=O)c(=O)c2c1 (stereo not given),–,15,17,10,inactive,12,–,inactive,inactive,–,–
NYSTATIN,–,–,–,–,–,–,–,–,inactive,–,diameter of the inhibition zone (DIZ) (Escherichia coli [2]): inactive; diameter of the inhibition zone (DIZ) (Salmonella typhimurium [3]): inactive; inhibition zone (IZ) (Aspergillus fumigatus [11]): 18 mm; inhibition zone (IZ) (Aspergillus niger [12]): 18 mm; diameter of the inhibition zone (DIZ) (Staphylococcus aureus [5]): inactive
CN1C(=O)C(C(=O)/C=C/c2coc3ccccc3c2=O)C(=O)N(C)C1=O,20,20,16,16,–,15,8,–,–,10,–
CN1C(=O)C(C(=O)C(Br)C(Br)c2coc3ccccc3c2=O)C(=O)N(C)C1=O (stereo not given),–,14,15,16,inactive,8,–,inactive,inactive,–,–
Cc1ccc2occ(C3CC(C4C(=O)N(C)C(=O)N(C)C4=O)=NN3)c(=O)c2c1 (stereo not given),13,12,17,10,–,11,–,inactive,–,10,–
CN1C(=O)C(C2=NC(=O)NC(c3coc4ccccc4c3=O)C2)C(=O)N(C)C1=O (stereo not given),–,15,–,11,inactive,8,–,inactive,inactive,–,diameter of the inhibition zone (DIZ) (Candida albicans): inactive
Cc1ccc2occ(/C=C/C(=O)C3C(=O)N(C)C(=O)N(C)C3=O)c(=O)c2c1,16,20,12,12,–,12,12,–,–,14,–
Cc1ccc2occ(C3CC(C4C(=O)N(C)C(=O)N(C)C4=O)=NN3c3ccccc3)c(=O)c2c1 (stereo not given),–,–,15,19,inactive,–,–,inactive,inactive,–,diameter of the inhibition zone (DIZ) (Escherichia coli [2]): inactive; diameter of the inhibition zone (DIZ) (Staphylococcus aureus [5]): inactive
